Reference: patent US20060024392A1, “Compositions and methods for enhancing the effectiveness of a chemotherapeutic agent” (priority 2004, published 2006)
Entries after “also recorded” stand apart in the source; their conditions may differ.

Tested on: HT29 colon cancer cells
Assay: Sulforhodamine B (SRB) cell growth assay in HT29 colon cancer cells
Format: cell-based
Method: HT-29, a cell line derived from colorectal adenocarcinoma (ATCC, HTB 38), grows in McCoy's 5A medium (Biowhittaker, Inc. Walkersville, Md.). NCM460, a cell line derived from a normal human colon (InCell Corp. San Antonio, Tex.), grows in M3 Base media (InCell Corp. San Antonio, Tex.).
Both cell lines are kept at 37° C. and 5% CO2 atmosphere. Both media are supplemented with 10% fetal bovine serum (FBS, Biowhittaker, Inc. Walkersville, Md.).
Cells are fixed in situ by the gentle addition of 50 μl of cold 50% (w/v) TCA (final concentration, 10% TCA) and incubated for 60 minutes at 4° C. The supernatant is discarded, and the plates are washed five times with tap water and air dried. Sulforhodamine B (SRB) solution (100 μl) at 0.4% (w/v) in 1% acetic acid is added to each well, and plates are incubated for 10 minutes at room temperature. After staining, unbound dye is removed by washing five times with 1% acetic acid and the plates are air dried. Bound stain is subsequently solubilized with 100 μl 10 mM trizma base for 5 minutes, and the absorbance at wavelength of 490 nm was spectrophotometrically measured using a microplate reader Elx800 (Bio-Tek instruments, Inc.).
Cells were seeded in 96-well cluster tissue culture plates (Costar), containing 100 μl complete growth medium per well at densities of 5,000 cells per well. Incubated at 37° C. in a humidified tissue culture incubator. After 24 Hour, 100 μl complete medium containing 5 half-log dilutions of the 5FU from 2*10^−4 to 2*10^−6 M was added into each well (final concentrations are from 10^−4 to 10^−6 M). Six replicates were used for each concentration. Media containing 0.125% DMSO was used as control. After 48 hours of incubation with 5FU in medium, cell proliferation was assessed using the SRB assay.
Percentage growth (Growth%) is calculated as: [(Ti−Tz)/(C−Tz)]×100 [absorbance measurements at time zero (Tz), control growth (C), and test growth in the presence of drug at the different concentration levels (Ti)].
Similar to the method used in testing GI50 of 5FU: HT29 was plated at 5000 cells per well. […] After 48 hour treatment, cell growth was assessed using SRB assay.
The protocol was the same as described above, except cells were exposed to 5FU at concentration ranging from 10^−4 to 10^−6 M with chokeberry ARE at concentration of 1.56, 5, 15.6, 50 μg monomeric anthocyanin/ml growth media.
The protocol was the similar to Experiment 1: Cells were exposed to half-log diluted SAC at concentration ranging from 3.2 to 1000 μM for 48 hour. Media containing 0.5% filtered water was used as control.
This experiment was to determine whether the antioxidant, SAC would enhance the effect of 5FU in HT29 cells. The protocol was the same as Experiment 3, except cells were exposed to 5FU at concentration ranging from 10^−4 to 10^−6 M with SAC at concentration of 10, 100, 1000 μM.

[1] = SAC 3.2 μM, 48 hour, experiment 1
[2] = SAC 3.2 μM, 48 hour, experiment 2
[3] = SAC 10 μM, 48 hour, experiment 1
[4] = SAC 10 μM, 48 hour, experiment 2
[5] = SAC 32 μM, 48 hour, experiment 1
[6] = SAC 32 μM, 48 hour, experiment 2
[7] = SAC 100 μM, 48 hour, experiment 1
[8] = SAC 100 μM, 48 hour, experiment 2
[9] = SAC 320 μM, 48 hour, experiment 1
[10] = SAC 320 μM, 48 hour, experiment 2
[11] = SAC 1000 μM, 48 hour, experiment 1
[12] = SAC 1000 μM, 48 hour, experiment 2
[13] = Table 6 (1): SAC 1000 uM, 5FU 0
[14] = Table 6 (2): SAC 1000 uM, 5FU 0

`C=CCSC[C@H](N)C(=O)O` [SAC, S-Allyl-cysteine] was tested, and the “enhancement of 5FU toxicity by SAC” value (5FU 10^−4 to 10^−6 M with SAC 10, 100, 1000 μM) was “No significant enhancement; also recorded: did not inhibit HT29 cell growth or enhance 5 FU toxicity”, the Growth % [1] was 101.17% and the OD [1] was 0.66. It also gave a Growth % [2] of 102.24%, an OD [2] of 0.682 and a Growth % [3] of 98.37%. It also gave an OD [3] of 0.648, a Growth % [4] of 94.17% and an OD [4] of 0.646. The Growth % [5] was 92.77%, the OD [5] was 0.624 and the Growth % [6] was 98.43%. It also gave an OD [6] of 0.665, a Growth % [7] of 92.77% and an OD [7] of 0.624. The Growth % [8] was 98.21%, the OD [8] was 0.664 and the Growth % [9] was 81.59%. It also gave an OD [9] of 0.576, a Growth % [10] of 101.35% and an OD [10] of 0.678. The Growth % [11] was 86.95%, the OD [11] was 0.599 and the Growth % [12] was 98.65%. For the same compound, the OD [12] was 0.666, the “inhibition of HT29 cancer cells by SAC” value (SAC 3.2 to 1000 μM, 48 hour) was “did not show significant inhibition; also recorded: did not inhibit HT29 cell growth” and the Growth % (Table 6 (1): SAC 10 uM, 5FU 0) was 104.65%. The OD (Table 6 (1): SAC 10 uM, 5FU 0) was 0.341, the Growth % (Table 6 (1): SAC 100 uM, 5FU 0) was 104.19% and the OD (Table 6 (1): SAC 100 uM, 5FU 0) was 0.34. For the same compound, the Growth % [13] was 95.35%, the OD [13] was 0.321 and the Growth % (Table 6 (2): SAC 10 uM, 5FU 0) was 92.41%. It also gave an OD (Table 6 (2): SAC 10 uM, 5FU 0) of 0.335, a Growth % (Table 6 (2): SAC 100 uM, 5FU 0) of 91.56% and an OD (Table 6 (2): SAC 100 uM, 5FU 0) of 0.333. It also gave a Growth % [14] of 74.26% and an OD [14] of 0.292.
